Experimental findings from patent US9420770B2, “Methods of modulating thrombocytopenia and modified transgenic pigs” (Indiana University Research and Technology Corporation, priority 2009, dated 2016) are described below.

Common to all, as to format: cell-based, pig
The subject of data set [1] is ASGR1 mRNA. Briefly: siRNA reduction of ASGR1: transcript levels by quantitative PCR. The following applies: 48 hours after siRNA treatment. As for the experimental part: RNA extraction was performed on cultured LSEC and tissues harvested from domestic and GTKO/hDAF pigs. Total RNA was extracted from LSEC and low-fiber tissues using the RNeasy Minikit (Qiagen, Valencia Calif.). RNA from fiber-rich tissue was isolated using the RNeasy fibrous tissue kit (Qiagen, Valencia Calif.). RNA quality was assessed using an Agilent 2100 Bioanalyzer (Biotechnology Research and Training Center IUPUI). Reverse transcription was performed using Quantitect Reverse Transcription kit (Qiagen, Valencia Calif.). Presence/absence experiments of endogenous mRNA were performed on a 9700 Applied Biosystems™ cycler. Products were run using Quantitect Sybr Green (Qiagen, Valencia Calif.). Endogenous mRNA levels were measured by real-time quantitative PCR analysis on a STEP-ONE PLUS (Applied Biosystems™, Carlsbad Calif.) real time PCR system and comparative CT analysis was performed. Gene expression assays for porcine ASGR1 and β-actin AI6RMY and SSO 3376160-u1 (Applied Biosystems™, Carlsbad Calif.) were used. […]
(§1) siRNA sense and antisense oligos were designed to the mRNA sequence of ASGR1 (FIG. 17C). […] ASGR1 transcript levels were determined by quantitative PCR. ASGR1 protein levels were analyzed.

Data set [2] concerns ASGR1 protein. Briefly: siRNA reduction of ASGR1: protein levels by immunoblotting. The following applies: 48 hours after siRNA treatment. As for the experimental part:
LSECs were resuspended in Laemmli sample buffer with protease arrest (G-bioscience™, Maryland Heights Mo.). Samples were electrophoresed on SDS-polyacrylamide gels (SDS-PAGE). Polypeptides were transferred to membranes for immunoblot or lectin blot analysis. Membranes were blocked by incubation with 50% Odyssey blocking buffer (LI-COR Biosciences™, Lincoln Nebr.) in phosphate buffered saline (PBS) for approximately one hour. Membranes were incubated with anti-ASGR1 (Santa Cruz Biotechnologies™, Santa Cruz Calif.), anti-GAPDH (Millipore™, Billerica Mass., MAB374), anti-β-actin (Rockland Immunochemicals for Research, Gilbertsville Pa.), or anti-CD42b (Santa Cruz Biotechnologies™, SC-13467) according to the manufacturer's recommended protocol. Membranes were also incubated with ECA-biotin (EY Laboratories San Mateo Calif.) in a calcium containing buffer. Following primary antibody or lectin binding, membranes were washed. Membranes were incubated with the appropriate secondary antibody or streptavidin conjugated to either IRDye 800CW or IRDye680CW (LI-Cor Biosciences™). […] Protein bands were quantified by intensity using the LI-COR software.
as §1

The subject of data set [3] is porcine primary LSECs. Kind of data set: Platelet phagocytosis assay with siRNA treated LSECs. The following applies: 48 hours after siRNA treatment, n=3. As for the experimental part:
Primary LSECs were cultured in black walled-clear bottomed, cell culture treated 96-well plates (approximately 100,000 cells/well). The plated cells were incubated at 37° C. and 5% CO2 for four, five or six days as indicated. Four million CFSE-labeled platelets were added to wells in 96 well plates containing primary LSEC and media. Plates were centrifuged at 2000×g to synchronize the wells. At predetermined time points, the incubations were stopped. Duplicate wells for each time point were washed with PBS three times. After washing, the cells were incubated with 4% paraformaldehyde-PBS solution for 20 minutes to fix the cells. The wells were washed with PBS. 50 μl PBS was placed in each well. After obtaining the timepoints, the plates were read for fluorescence using a Spectra Max M2e plate reader (Molecular Devices Co.) set to read 9 different points within each well. Wells with LSECs and without CFSE-labeled platelets were used to determine the auto-fluorescence of LSECs. Data points from at least three separate porcine LSEC experiments were averaged and the standard deviation was obtained.
siRNA sense and antisense oligos were designed to the mRNA sequence of ASGR1 (FIG. 17C). […] ASGR1 transcript levels were determined by quantitative PCR. ASGR1 protein levels were analyzed. […]

Data set [4] deals with LSEC. Kind of data set: High-throughput fluorescent 96-well phagocytosis assay (ELISA based fluorescent assay) with platelets and LSEC. The following applies: compound at 5 mg/ml, 0.5 mg/ml or none, FIG. 9 panel B. The method, then: A high-throughput fluorescent 96-well phagocytosis assay was performed using human and baboon platelets and LSEC. The compounds of interest asialofeutin or feutin were added to the samples. Experiments were performed with reduced calcium or in the presence of the chelating agent, EDTA.

Data set [5] deals with Domestic and GTKO/hDAF LSEC cultures. Briefly: Inhibition of platelet phagocytosis assay: fetuin / asialofetuin, CFSE-labeled human platelets. The following applies: LSECs from domestic or GTKO/hDAF pigs; 0.5-20 μg/ml; FIG. 15 panel A. As for the experimental part:
Fetuin, a glycoprotein composed of sialic acid terminated galactose β1, −4 N-acetylglucosamine (Galβ) oligosaccharides, and asialofetuin, a derivative of fetuin lacking the terminal sialic acid saccharides and with exposed Galβ oligosaccharides were utilized to evaluate platelet binding. Domestic (n=2-5) and GTKO/hDAF (n=5) LSEC cultures were established. Cultures were incubated with 0.5, 2.5, 5, 10 or 20 μg/ml fetuin or asialofetuin. After incubations, CFSE-labeled human platelets were added to the cultures. Platelet binding and phagocytosis was measured using a spectromax plate reader. The percent of platelet binding was calculated.

For the substance “ASGR1 siRNA: double-stranded siRNA to ASGR1 mRNA; sense strand SEQ ID NO:11, antisense strand SEQ ID NO:12 (sense CAGCAUGCAGGGAGGAAAUUU; antisense AUUUCCUCCCUGCAUGCUGUU; chemistry not given here)”, the “ASGR1 mRNA levels relative to non-specifically treated cells (siGenome)” value was 20% in data set [1] (GTKO/hDAF LSECs) and 56% in data set [1] (domestic LSECs). For the same substance, the “ASGR1 protein levels relative to non-specifically treated cells (siGenome)” value amounted to 87% in data set [2] (GTKO/hDAF LSECs) and 80% in data set [2] (domestic LSECs). In addition, the results for the “platelet phagocytosis compared to siGenome transfected LSECs” value in data set [3] (GTKO/hDAF LSECs) and in data set [3] (domestic LSECs) were 69% and 79%, respectively.
Regarding Fetuin, in data set [4], the “inhibition of binding of baboon platelets (RFI)” value is “not feutin inhibits binding” and the “inhibition of binding of human platelets (RFI)” value is “not feutin inhibits binding”.
As to asialofetuin, in data set [4], the “inhibition of binding of baboon platelets (RFI)” value was “inhibits binding” and the “inhibition of binding of human platelets (RFI)” value is on record as “inhibits binding”. The “percent of human platelet binding by LSECs” value in data set [5] is “significantly reduced”.
